# Measured values reported in patent US8796289B2 (AbbVie Inc., priority 2011, dated 2014).
# Molecular target: GST-tagged-Wee1 kinase (Homo sapiens, UniProt P30291)
# Assay: Wee1 time-resolved fluorescence equilibrium binding assay (displacement of Oregon Green-labeled ATP-competitive kinase probe)
# Procedure: Wee1 kinase was assayed using a time-resolved fluorescence equilibrium binding assay monitoring displacement of a rapidly reversible Oregon Green-labeled ATP-competitive kinase probe (N-(2-(2-(2-(4-(4-(5-chloro-4-(2-(1-hydroxycyclobutyl)thiazol-5-yl)-1H-pyrrolo[2,3-b]pyridin-2-yl)phenyl)piperazin-1-yl)ethoxy)ethoxy)ethyl)-2′,7′-difluoro-3′,6′-dihydroxy-3-oxo-3H-spiro[isobenzofuran-1,9′-xanthene]-5-carboxamide) by competitive Wee1 inhibitors.
# Sequence of GST-tagged-Wee1 kinase (P30291 whole entry): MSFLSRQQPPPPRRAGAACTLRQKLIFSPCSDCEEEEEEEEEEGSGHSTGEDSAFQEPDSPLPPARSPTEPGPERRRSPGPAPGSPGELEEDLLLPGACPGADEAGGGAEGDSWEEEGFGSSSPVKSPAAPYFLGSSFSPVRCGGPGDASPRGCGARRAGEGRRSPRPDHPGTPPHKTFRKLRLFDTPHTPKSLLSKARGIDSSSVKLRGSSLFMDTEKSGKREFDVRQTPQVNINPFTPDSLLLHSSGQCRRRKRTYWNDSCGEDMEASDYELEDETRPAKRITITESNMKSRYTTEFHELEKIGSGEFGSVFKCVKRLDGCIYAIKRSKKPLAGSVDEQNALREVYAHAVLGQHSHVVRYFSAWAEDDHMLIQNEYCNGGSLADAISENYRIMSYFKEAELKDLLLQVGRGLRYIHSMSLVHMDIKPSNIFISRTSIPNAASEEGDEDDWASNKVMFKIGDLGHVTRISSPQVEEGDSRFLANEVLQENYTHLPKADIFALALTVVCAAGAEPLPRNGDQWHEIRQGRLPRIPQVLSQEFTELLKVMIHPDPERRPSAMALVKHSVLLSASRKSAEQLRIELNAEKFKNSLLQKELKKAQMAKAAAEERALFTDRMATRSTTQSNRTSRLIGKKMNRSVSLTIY
row,Ki [nM],SMILES
1,220,"CN1CCC(n2nc(-c3ccccn3)c3nc(Nc4ccc5c(c4)CN(C)CC5(C)C)ncc3c2=O)CC1 [Example 328, 6-(1-methylpiperidin-4-yl)-8-(pyridin-2-yl)-2-[(2,4,4-trimethyl-1,2,3,4-tetrahydroisoquinolin-7-yl)amino]pyrimido[4,5-d]pyridazin-5(6H)-one]"
2,27,"CN1CCC(n2nc(-c3ccccn3)c3nc(Nc4ccc5c(c4)CNCC5(C)C)ncc3c2=O)CC1 [Example 329, 2-[(4,4-dimethyl-1,2,3,4-tetrahydroisoquinolin-7-yl)amino]-6-(1-methylpiperidin-4-yl)-8-(pyridin-2-yl)pyrimido[4,5-d]pyridazin-5(6H)-one]"
3,260,"CC1CCCC(C)C1n1nc(-c2ccccn2)c2nc(Nc3ccc4c(c3)CN(C)CC4(C)C)ncc2c1=O (stereo not shown) [Example 330, 6-(2,6-dimethylcyclohexyl)-8-(pyridin-2-yl)-2-[(2,4,4-trimethyl-1,2,3,4-tetrahydroisoquinolin-7-yl)amino]pyrimido[4,5-d]pyridazin-5(6H)-one]"
4,180,"CC1CCCC(C)C1n1nc(-c2ccccn2)c2nc(Nc3ccc4c(c3)CNCC4(C)C)ncc2c1=O (stereo not shown) [Example 331, 6-(2,6-dimethylcyclohexyl)-2-[(4,4-dimethyl-1,2,3,4-tetrahydroisoquinolin-7-yl)amino]-8-(pyridin-2-yl)pyrimido[4,5-d]pyridazin-5(6H)-one]"
5,490,"CN1CCCC(n2nc(-c3ccccn3)c3nc(Nc4ccc5c(c4)CNCC5(C)C)ncc3c2=O)C1 (stereo not shown) [Example 332, 2-[(4,4-dimethyl-1,2,3,4-tetrahydroisoquinolin-7-yl)amino]-6-(1-methylpiperidin-3-yl)-8-(pyridin-2-yl)pyrimido[4,5-d]pyridazin-5(6H)-one]"
6,770,"CC1CCCC(C)C1n1nc(-c2ccccn2)c2nc(Nc3ccc(N4CCNCC4)cc3)ncc2c1=O (stereo not shown) [Example 333, 6-(2,6-dimethylcyclohexyl)-2-{[4-(piperazin-1-yl)phenyl]amino}-8-(pyridin-2-yl)pyrimido[4,5-d]pyridazin-5(6H)-one]"
7,640,"CN1CCCC(n2nc(-c3ccccn3)c3nc(Nc4ccc(N5CCNCC5)cc4)ncc3c2=O)C1 (stereo not shown) [Example 334, 6-(1-methylpiperidin-3-yl)-2-{[4-(piperazin-1-yl)phenyl]amino}-8-(pyridin-2-yl)pyrimido[4,5-d]pyridazin-5(6H)-one]"
8,0.21,"CC(C)n1cc(-c2nn(-c3c(F)cccc3Cl)c(=O)c3cnc(Nc4ccc5c(c4)CNCC54CC4)nc23)cn1 [Example 335, 6-(2-chloro-6-fluorophenyl)-2-(2′,3′-dihydro-1′H-spiro[cyclopropane-1,4′-isoquinolin]-7′-ylamino)-8-[1-(propan-2-yl)-1H-pyrazol-4-yl]pyrimido[4,5-d]pyridazin-5(6H)-one]"
9,0.49,"CN1CCN(c2ccc(Nc3ncc4c(=O)n(-c5ncccc5Cl)nc(-c5ccncc5)c4n3)cc2)CC1 [Example 336, 6-(3-chloropyridin-2-yl)-2-{[4-(4-methylpiperazin-1-yl)phenyl]amino}-8-(pyridin-4-yl)pyrimido[4,5-d]pyridazin-5(6H)-one]"
10,0.22,"CC(C)n1cc(-c2nn(-c3c(Cl)cccc3Cl)c(=O)c3cnc(Nc4ccc5c(c4)CNCC54CC4)nc23)cn1 [Example 337, 6-(2,6-dichlorophenyl)-2-(2′,3′-dihydro-1′H-spiro[cyclopropane-1,4′-isoquinolin]-7′-ylamino)-8-[1-(propan-2-yl)-1H-pyrazol-4-yl]pyrimido[4,5-d]pyridazin-5(6H)-one]"
11,0.72,"CN1CCN(c2ccc(Nc3ncc4c(=O)n(-c5c(Cl)cccc5Cl)nc(-c5cn(C)cn5)c4n3)cc2)CC1 [Example 338, 6-(2,6-dichlorophenyl)-8-(1-methyl-1H-imidazol-4-yl)-2-{[4-(4-methylpiperazin-1-yl)phenyl]amino}pyrimido[4,5-d]pyridazin-5(6H)-one]"
12,0.71,"CN1Cc2cc(Nc3ncc4c(=O)n(-c5c(Cl)cccc5Cl)nc(-c5cn(C)cn5)c4n3)ccc2C2(CC2)C1 [Example 339, 6-(2,6-dichlorophenyl)-2-[(2′-methyl-2′,3′-dihydro-1′H-spiro[cyclopropane-1,4′-isoquinolin]-7′-yl)amino]-8-(1-methyl-1H-imidazol-4-yl)pyrimido[4,5-d]pyridazin-5(6H)-one]"
13,0.32,"Cn1cnc(-c2nn(-c3c(Cl)cccc3Cl)c(=O)c3cnc(Nc4ccc(N5CCNCC5)cc4)nc23)c1 [Example 340, 6-(2,6-dichlorophenyl)-8-(1-methyl-1H-imidazol-4-yl)-2-{[4-(piperazin-1-yl)phenyl]amino}pyrimido[4,5-d]pyridazin-5(6H)-one]"
14,1,"Cn1cnc(-c2nn(-c3c(Cl)cccc3Cl)c(=O)c3cnc(Nc4ccc5c(c4)CNCC54CC4)nc23)c1 [Example 341, 6-(2,6-dichlorophenyl)-2-(2′,3′-dihydro-1′H-spiro[cyclopropane-1,4′-isoquinolin]-7′-ylamino)-8-(1-methyl-1H-imidazol-4-yl)pyrimido[4,5-d]pyridazin-5(6H)-one]"
15,1,"Cn1cnc(-c2nn(-c3c(Cl)cccc3Cl)c(=O)c3cnc(Nc4ccc5c(c4)CNCC5)nc23)c1 [Example 342, 6-(2,6-dichlorophenyl)-8-(1-methyl-1H-imidazol-4-yl)-2-(1,2,3,4-tetrahydroisoquinolin-7-ylamino)pyrimido[4,5-d]pyridazin-5(6H)-one]"
16,6.9,"CN1CCN(c2ccc(Nc3ncc4c(=O)n(-c5ncccc5Cl)nc(-c5cn(C)cn5)c4n3)cc2)CC1 [Example 343, 6-(3-chloropyridin-2-yl)-8-(1-methyl-1H-imidazol-4-yl)-2-{[4-(4-methylpiperazin-1-yl)phenyl]amino}pyrimido[4,5-d]pyridazin-5(6H)-one]"
17,0.25,"O=c1c2cnc(Nc3ccc(N4CCNCC4)cc3)nc2c(-c2nccs2)nn1-c1c(Cl)cccc1Cl [Example 344, 6-(2,6-dichlorophenyl)-2-{[4-(piperazin-1-yl)phenyl]amino}-8-(1,3-thiazol-2-yl)pyrimido[4,5-d]pyridazin-5(6H)-one]"
18,0.34,"O=c1c2cnc(Nc3ccc4c(c3)CNCC43CC3)nc2c(-c2nccs2)nn1-c1c(Cl)cccc1Cl [Example 345, 6-(2,6-dichlorophenyl)-2-(2′,3′-dihydro-1′H-spiro[cyclopropane-1,4′-isoquinolin]-7′-ylamino)-8-(1,3-thiazol-2-yl)pyrimido[4,5-d]pyridazin-5(6H)-one]"
19,0.21,"O=c1c2cnc(Nc3ccc4c(c3)CNCC4)nc2c(-c2nccs2)nn1-c1c(Cl)cccc1Cl [Example 346, 6-(2,6-dichlorophenyl)-2-(1,2,3,4-tetrahydroisoquinolin-7-ylamino)-8-(1,3-thiazol-2-yl)pyrimido[4,5-d]pyridazin-5(6H)-one]"
20,6.5,"O=c1c2cnc(Nc3ccc(N4CCNCC4)cc3)nc2c(-c2nccs2)nn1-c1ncccc1Cl [Example 347, 6-(3-chloropyridin-2-yl)-2-{[4-(piperazin-1-yl)phenyl]amino}-8-(1,3-thiazol-2-yl)pyrimido[4,5-d]pyridazin-5(6H)-one]"
21,1.8,"CN1CCN(c2ccc(Nc3ncc4c(=O)n(-c5ncccc5Cl)nc(-c5ccccn5)c4n3)cc2)CC1 [Example 348, 6-(3-chloropyridin-2-yl)-2-{[4-(4-methylpiperazin-1-yl)phenyl]amino}-8-(pyridin-2-yl)pyrimido[4,5-d]pyridazin-5(6H)-one]"
22,0.5,"Cc1nn(-c2ncccc2Cl)c(=O)c2cnc(Nc3ccc4c(c3)CNCC43CC3)nc12 [Example 349, 6-(3-chloropyridin-2-yl)-2-(2′,3′-dihydro-1′H-spiro[cyclopropane-1,4′-isoquinolin]-7′-ylamino)-8-methylpyrimido[4,5-d]pyridazin-5(6H)-one]"
23,1.8,"Cn1cnc(-c2nn(-c3ncccc3Cl)c(=O)c3cnc(Nc4ccc(N5CCNCC5)cc4)nc23)c1 [Example 350, 6-(3-chloropyridin-2-yl)-8-(1-methyl-1H-imidazol-4-yl)-2-{[4-(piperazin-1-yl)phenyl]amino}pyrimido[4,5-d]pyridazin-5(6H)-one]"
24,1.1,"Cc1nn(-c2ncccc2Cl)c(=O)c2cnc(Nc3ccc4c(c3)CN(C)CC43CC3)nc12 [Example 351, 6-(3-chloropyridin-2-yl)-8-methyl-2-[(2′-methyl-2′,3′-dihydro-1′H-spiro[cyclopropane-1,4′-isoquinolin]-7′-yl)amino]pyrimido[4,5-d]pyridazin-5(6H)-one]"
25,12,"Cn1cnc(-c2nn(-c3ncccc3Cl)c(=O)c3cnc(Nc4ccc5c(c4)CNCC54CC4)nc23)c1 [Example 352, 6-(3-chloropyridin-2-yl)-2-(2′,3′-dihydro-1′H-spiro[cyclopropane-1,4′-isoquinolin]-7′-ylamino)-8-(1-methyl-1H-imidazol-4-yl)pyrimido[4,5-d]pyridazin-5(6H)-one]"
26,16,"Cn1cnc(-c2nn(-c3ncccc3Cl)c(=O)c3cnc(Nc4ccc5c(c4)CNCC5)nc23)c1 [Example 353, 6-(3-chloropyridin-2-yl)-8-(1-methyl-1H-imidazol-4-yl)-2-(1,2,3,4-tetrahydroisoquinolin-7-ylamino)pyrimido[4,5-d]pyridazin-5(6H)-one]"
27,740,"CN1CCN(c2ccc(Nc3ncc4c(=O)n(-c5c(Cl)cccc5Cl)nc(-c5nccn5C)c4n3)cc2)CC1 [Example 354, 6-(2,6-dichlorophenyl)-8-(1-methyl-1H-imidazol-2-yl)-2-{[4-(4-methylpiperazin-1-yl)phenyl]amino}pyrimido[4,5-d]pyridazin-5(6H)-one]"
28,2.4,"Cn1ccnc1-c1nn(-c2c(Cl)cccc2Cl)c(=O)c2cnc(Nc3ccc(N4CCNCC4)cc3)nc12 [Example 355, 6-(2,6-dichlorophenyl)-8-(1-methyl-1H-imidazol-2-yl)-2-{[4-(piperazin-1-yl)phenyl]amino}pyrimido[4,5-d]pyridazin-5(6H)-one]"
